Where a name gives a salt, the structure may show the parent alone. Read-outs that look alike come from different tables or passages of the source.
Molecular target: SARS-CoV-2 3CLpro (Severe acute respiratory syndrome coronavirus 2, UniProt P0DTD1)
Experiment: biochemical
Assay type: biochemical
Set-up: Replicate_1 / Replicate_2 / mean / mean (LOPAC_screen_w_protease): unit not given here
Conditions: for inhibition at 5 µM: 4 h
[1] = LOPAC1280 primary screen with protease, 5 µM compound, replicate 1, read-out: Replicate_1 (LOPAC_screen_w_protease)
[2] = LOPAC1280 primary screen with protease, 5 µM compound, replicate 2, read-out: Replicate_2 (LOPAC_screen_w_protease)
[3] = LOPAC1280 primary screen with protease, 5 µM compound, mean of the two replicates
[4] = sheet LOPAC_screen_w_protease, LOPAC1280 at 5 µM, mean of two replicates, read-out: mean
[5] = sheet LOPAC_screen_w_protease, LOPAC1280 at 5 µM, replicate 1, read-out: Replicate_1
[6] = sheet LOPAC_screen_w_protease, LOPAC1280 at 5 µM, replicate 2, read-out: Replicate_2
[7] = LOPAC1280 primary screen with protease, 5 µM compound, replicate 1
[8] = LOPAC1280 primary screen with protease, 5 µM compound, replicate 2
[9] = sheet LOPAC_screen_w_protease, primary screen with protease, mean of two replicates, read-out: mean
[10] = sheet LOPAC_screen_w_protease, primary screen with protease, replicate 1, read-out: Replicate_1
[11] = sheet LOPAC_screen_w_protease, primary screen with protease, replicate 2, read-out: Replicate_2
[12] = sheet LOPAC_screen_w_protease, primary screen with protease, compound at 5 µM, mean of two replicates
[13] = sheet LOPAC_screen_w_protease, primary screen with protease, compound at 5 µM, replicate 1
[14] = sheet LOPAC_screen_w_protease, primary screen with protease, compound at 5 µM, replicate 2

## O=C(CCCN1CCC(O)(c2ccc(Cl)cc2)CC1)c1ccc(F)cc1 [Haloperidol]
[1]
  inhibition at 5 µM: 2.99%
[2]
  inhibition at 5 µM: 0.623%
[3]
  mean (LOPAC_screen_w_protease): 1.809

## Cc1nccc2c1[nH]c1ccccc12 [Harmane]
[4]
  inhibition at 5 µM: 1.1%
[5]
  inhibition at 5 µM: 2.71%
[6]
  inhibition at 5 µM: -0.5%

## C[N+]1(C)CCOC(O)(c2ccc(-c3ccc(C4(O)C[N+](C)(C)CCO4)cc3)cc2)C1 (stereo not drawn) [Hemicholinium-3]
Sheet LOPAC_screen_w_protease, primary screen with protease, compound at 5 µM, mean of two replicates, read-out: mean
  inhibition at 5 µM: 2.72%
Sheet LOPAC_screen_w_protease, primary screen with protease, compound at 5 µM, replicate 1, read-out: Replicate_1
  inhibition at 5 µM: 4.37%
Sheet LOPAC_screen_w_protease, primary screen with protease, compound at 5 µM, replicate 2, read-out: Replicate_2
  inhibition at 5 µM: 1.08%

## C[N+](C)(C)CCCCCC[N+](C)(C)C [Hexamethonium bromide]
Sheet LOPAC_screen_w_protease, primary screen with protease, 5 µM, mean of two replicates, read-out: mean
  inhibition at 5 µM: 0.248%
Sheet LOPAC_screen_w_protease, primary screen with protease, 5 µM, replicate 1, read-out: Replicate_1
  inhibition at 5 µM: 1.66%
Sheet LOPAC_screen_w_protease, primary screen with protease, 5 µM, replicate 2, read-out: Replicate_2
  inhibition at 5 µM: -1.17%

## C[N+](C)(C)CCCCCC[N+](C)(C)C.[Cl-].[Cl-] [Hexamethonium dichloride]
[3]
  mean (LOPAC_screen_w_protease): 1.868
[7]
  Replicate_1 (LOPAC_screen_w_protease): 3.928
[8]
  Replicate_2 (LOPAC_screen_w_protease): -0.1911

## NCCc1c[nH]cn1 [Histamine dihydrochloride]
read-out: Replicate_1
  inhibition at 5 µM: 3.24%
read-out: Replicate_2
  inhibition at 5 µM: -1.24%
read-out: mean
  inhibition at 5 µM: 1%

## NNc1nncc2ccccc12 [Hydralazine hydrochloride]
read-out: Replicate_1
  inhibition at 5 µM: 4.76%
read-out: Replicate_2
  inhibition at 5 µM: 1.31%
read-out: mean
  inhibition at 5 µM: 3.03%

## NS(=O)(=O)c1cc2c(cc1Cl)NCNS2(=O)=O [Hydrochlorothiazide]
[9]
  inhibition at 5 µM: 2.22%
[10]
  inhibition at 5 µM: 3.63%
[11]
  inhibition at 5 µM: 0.799%

## C[C@]12CCC(=O)C=C1CC[C@@H]1[C@@H]2[C@@H](O)C[C@@]2(C)[C@H]1CC[C@]2(O)C(=O)COC(=O)CCC(=O)[O-].[Na+] [Hydrocortisone 21-hemisuccinate sodium]
Sheet LOPAC_screen_w_protease, LOPAC1280 at 5 µM, mean of two replicates
  mean: 1.066
Sheet LOPAC_screen_w_protease, LOPAC1280 at 5 µM, replicate 1
  Replicate_1: 1.635
Sheet LOPAC_screen_w_protease, LOPAC1280 at 5 µM, replicate 2
  Replicate_2: 0.4974

## C[C@]12CCC(=O)C=C1CC[C@@H]1[C@@H]2[C@@H](O)C[C@@]2(C)[C@H]1CC[C@]2(O)C(=O)CO [Hydrocortisone]
[4]
  inhibition at 5 µM: 1.15%
[5]
  inhibition at 5 µM: 2.23%
[6]
  inhibition at 5 µM: 0.0692%

## Oc1ccc(O)cc1 [Hydroquinone]
read-out: Replicate_1
  inhibition at 5 µM: 3.41%
read-out: Replicate_2
  inhibition at 5 µM: -0.951%
read-out: mean
  inhibition at 5 µM: 1.23%

## Nc1c2c(nc3ccccc13)CCCC2O.O=C(O)/C=C\C(=O)O (stereo not drawn) [Hydroxytacrine maleate]
Sheet LOPAC_screen_w_protease, primary screen with protease, mean of two replicates
  mean: 2.348
Sheet LOPAC_screen_w_protease, primary screen with protease, replicate 1
  Replicate_1: 3.064
Sheet LOPAC_screen_w_protease, primary screen with protease, replicate 2
  Replicate_2: 1.632

## NC(=O)NO [Hydroxyurea]
[12]
  mean: 2.8429
[13]
  Replicate_1: 4.9936
[14]
  Replicate_2: 0.6922

## NCCS(=O)O [Hypotaurine]
[1]
  inhibition at 5 µM: 4.13%
[2]
  inhibition at 5 µM: -0.407%
[3]
  mean (LOPAC_screen_w_protease): 1.861

## COc1cc(/C=C(\C#N)C(=O)c2ccc(O)c(O)c2)cc(I)c1O [I-OMe-Tyrphostin AG 538]
[12]
  mean: 2.606
[13]
  Replicate_1: 2.231
[14]
  Replicate_2: 2.982

## CNC(=O)[C@H]1O[C@@H](n2cnc3c(NCc4cccc(I)c4)ncnc32)[C@H](O)[C@@H]1O [IB-MECA]
[9]
  inhibition at 5 µM: 2.39%
[10]
  inhibition at 5 µM: 2.72%
[11]
  inhibition at 5 µM: 2.06%

## COc1cc(OC)c(C=C2C(O)=Nc3ccccc32)c(OC)c1 [IC 261]
[1]
  inhibition at 5 µM: 1.63%
[2]
  inhibition at 5 µM: 1.3%
LOPAC1280 primary screen with protease, 5 µM compound, mean of two replicates
  mean (LOPAC_screen_w_protease): 1.465

## Cc1ccc(OCC(O)C(C)NC(C)C)c2c1CCC2.Cl (stereo not drawn) [ICI 118,551 hydrochloride]
[3]
  mean (LOPAC_screen_w_protease): 1.851
[7]
  Replicate_1 (LOPAC_screen_w_protease): 3.391
[8]
  Replicate_2 (LOPAC_screen_w_protease): 0.3114

Reference: publication PMC7587356, “High-Throughput Screening for Inhibitors of the SARS-CoV-2 Protease Using a FRET-Biosensor” (Molecules, 2020)
